In ChEMBL document CHEMBL2311510, “A new single-photon emission computed tomography (SPECT) imaging agent for serotonin transporters: [(125)I]Flip-IDAM, (2-((2-((dimethylamino)methyl)-4-iodophenyl)thio)phenyl)methanol” (Bioorg Med Chem Lett, 2013):

Tests used:
[1] = tested on: Nucleic Acid; test: Ratio of drug level in striatum to cerebellum in Sprague-Dawley rat at 11 uCi, iv measured 60 mins post compound dose; type: ADME, organism-based; settings: in vivo, 1 h
[2] = tested on: Hypothalamus; test: Biodistribution in Sprague-Dawley rat hypothalamus at 11 uCi, iv measured 30 mins post compound dose; type: ADME, organism-based; settings: in vivo, 0.5 h
[3] = tested on: Hippocampus; test: Biodistribution in Sprague-Dawley rat hippocampus at 11 uCi, iv measured 60 mins post compound dose; type: ADME, organism-based; settings: in vivo, 1 h
[4] = tested on: Nucleic Acid; test: Ratio of drug level in rest of brain region to cerebellum in Sprague-Dawley rat at 11 uCi, iv measured 60 mins post compound dose; type: ADME, organism-based; settings: in vivo, 1 h
[5] = tested on: Striatum; test: Biodistribution in Sprague-Dawley rat striatum at 11 uCi, iv measured 30 mins post compound dose; type: ADME, organism-based; settings: in vivo, 0.5 h
[6] = tested on: Nucleic Acid; test: Ratio of drug level in hippocampus to cerebellum in Sprague-Dawley rat at 11 uCi, iv measured 120 mins post compound dose; type: ADME, organism-based; settings: in vivo, 2 h
[7] = tested on: Zone of skin; test: Biodistribution in Sprague-Dawley rat skin assessed as compound level per organ at 11 uCi, iv measured 2 mins post compound dose; type: ADME, organism-based; settings: in vivo
[8] = tested on: Kidney; test: Biodistribution in Sprague-Dawley rat kidney at 11 uCi, iv measured 30 mins post compound dose; type: ADME, organism-based; settings: in vivo, 0.5 h
[9] = tested on: Pancreas; test: Biodistribution in Sprague-Dawley rat pancreas assessed as compound level per organ at 11 uCi, iv measured 2 mins post compound dose; type: ADME, organism-based; settings: in vivo
[10] = tested on: Bone; test: Biodistribution in Sprague-Dawley rat bone assessed as compound level per organ at 11 uCi, iv measured 120 mins post compound dose; type: ADME, organism-based, Bone element; settings: in vivo, 2 h
[11] = tested on: Brain; test: Biodistribution in Sprague-Dawley rat brain assessed as compound level per organ at 11 uCi, iv measured 2 mins post compound dose; type: ADME, organism-based; settings: in vivo
[12] = tested on: Zone of skin; test: Biodistribution in Sprague-Dawley rat skin assessed as compound level per organ at 11 uCi, iv measured 60 mins post compound dose; type: ADME, organism-based; settings: in vivo, 1 h
[13] = tested on: Liver; test: Biodistribution in Sprague-Dawley rat liver assessed as compound level per organ at 11 uCi, iv measured 120 mins post compound dose; type: ADME, organism-based; settings: in vivo, 2 h
[14] = tested on: Pancreas; test: Biodistribution in Sprague-Dawley rat pancreas at 11 uCi, iv measured 30 mins post compound dose; type: ADME, organism-based; settings: in vivo, 0.5 h
[15] = tested on: Muscle tissue; test: Biodistribution in Sprague-Dawley rat muscle assessed as compound level per organ at 11 uCi, iv measured 2 mins post compound dose; type: ADME, organism-based; settings: in vivo
[16] = tested on: Heart; test: Biodistribution in Sprague-Dawley rat heart at 11 uCi, iv measured 2 mins post compound dose; type: ADME, organism-based; settings: in vivo
[17] = tested on: Muscle tissue; test: Biodistribution in Sprague-Dawley rat muscle assessed as compound level per organ at 11 uCi, iv measured 30 mins post compound dose; type: ADME, organism-based; settings: in vivo, 0.5 h
[18] = tested on: Muscle tissue; test: Biodistribution in Sprague-Dawley rat muscle at 11 uCi, iv measured 120 mins post compound dose; type: ADME, organism-based; settings: in vivo, 2 h
[19] = tested on: Heart; test: Biodistribution in Sprague-Dawley rat heart assessed as compound level per organ at 11 uCi, iv measured 2 mins post compound dose; type: ADME, organism-based; settings: in vivo
[20] = tested on: Spleen; test: Biodistribution in Sprague-Dawley rat spleen at 11 uCi, iv measured 120 mins post compound dose; type: ADME, organism-based; settings: in vivo, 2 h
[21] = tested on: Nucleic Acid; test: Ratio of drug level in cortex to cerebellum in Sprague-Dawley rat at 11 uCi, iv measured 30 mins post compound dose; type: ADME, organism-based; settings: in vivo, 0.5 h
[22] = tested on: Nucleic Acid; test: Ratio of drug level in hippocampus to cerebellum in Sprague-Dawley rat at 11 uCi, iv measured 2 mins post compound dose; type: ADME, organism-based; settings: in vivo
[23] = tested on: Lung; test: Biodistribution in Sprague-Dawley rat lung at 11 uCi, iv measured 30 mins post compound dose; type: ADME, organism-based; settings: in vivo, 0.5 h
[24] = tested on: Spleen; test: Biodistribution in Sprague-Dawley rat spleen assessed as compound level per organ at 11 uCi, iv measured 60 mins post compound dose; type: ADME, organism-based; settings: in vivo, 1 h
[25] = tested on: Spleen; test: Biodistribution in Sprague-Dawley rat spleen assessed as compound level per organ at 11 uCi, iv measured 30 mins post compound dose; type: ADME, organism-based; settings: in vivo, 0.5 h
[26] = tested on: Spleen; test: Biodistribution in Sprague-Dawley rat spleen assessed as compound level per organ at 11 uCi, iv measured 2 mins post compound dose; type: ADME, organism-based; settings: in vivo
[27] = tested on: Nucleic Acid; test: Ratio of drug level in hypothalamus to cerebellum in Sprague-Dawley rat at 11 uCi, iv measured 60 mins post compound dose; type: ADME, organism-based; settings: in vivo, 1 h
[28] = tested on: Spleen; test: Biodistribution in Sprague-Dawley rat spleen at 11 uCi, iv measured 30 mins post compound dose; type: ADME, organism-based; settings: in vivo, 0.5 h
[29] = tested on: Blood; test: Biodistribution in Sprague-Dawley rat blood assessed as compound level per organ at 11 uCi, iv measured 120 mins post compound dose; type: ADME, organism-based; settings: in vivo, 2 h

## CN(C)Cc1cc([125I])ccc1Sc1ccccc1CO
[1]
  Ratio: 2.12
[2]
  Drug uptake: 1 % ID/g
[3]
  Drug uptake: 0.21 % ID/g
[4]
  Ratio: 1.1
[5]
  Drug uptake: 0.78 % ID/g
[6]
  Ratio: 1.5
[7]
  Drug uptake: 8.86 %ID
[8]
  Drug uptake: 1.45 % ID/g
[9]
  Drug uptake: 0.6 %ID
[10]
  Drug uptake: 0.01 %ID
[11]
  Drug uptake: 2.52 %ID
[12]
  Drug uptake: 6.4 %ID
[13]
  Drug uptake: 2.69 %ID
[14]
  Drug uptake: 0.56 % ID/g
[15]
  Drug uptake: 21.9 %ID
[16]
  Drug uptake: 1.46 % ID/g
[17]
  Drug uptake: 17.1 %ID
[18]
  Drug uptake: 0.06 % ID/g
[19]
  Drug uptake: 1.17 %ID
[20]
  Drug uptake: 0.12 % ID/g
[21]
  Ratio: 0.82
[22]
  Ratio: 0.85
[23]
  Drug uptake: 0.77 % ID/g
[24]
  Drug uptake: 0.14 %ID
[25]
  Drug uptake: 0.23 %ID
[26]
  Drug uptake: 1.04 %ID
[27]
  Ratio: 2.77
[28]
  Drug uptake: 0.55 % ID/g
[29]
  Drug uptake: 2.71 %ID
